IC50 data for three compounds are collected here from PubChem BioAssay AID651794 (The Scripps Research Institute Molecular Screening Center, 2012).

Activity calls are given as the source filed them. The rule behind the calls is not given here. Where only a bound is given, the exact number is not on record here.

The test system of the experiment is cell-based VP16 transactivation counterscreen, luciferase luminescence. As to the kind of experiment: VP16 transactivation reporter inhibitors, late-stage follow-up, counter-screen for SRC1 inhibitor project, cell-based, luminescence, dose response (AID 651794). (A counterscreen serves to expose hits that act by an unwanted route or on another target.)

On to `COc1ccc(Nc2ncnc3ccc(Br)cc23)c(OC)c1`, for which the IC50 is 36.2 µM (inactive).

As to `COc1cc([C@@H]2c3cc4c(cc3C(OC3OC5COC(C)OC5C(O)C3O)C3COC(=O)[C@@H]32)OCO4)cc(OC)c1O` (stereo partly drawn), the IC50 was > 35.9 µM (inactive). With `COc1ccc(NC(=O)CN(C)C(=O)C2(c3ccccc3)CCCC2)cc1` the figure was > 35.9 µM (inactive).

Broadly, the IC50 is the concentration that gives 50% inhibition.
